In general, IC50 refers to the midpoint of a concentration-inhibition curve. High values mean a need for much substance, low ones inhibition by little substance.

Consider 1 compound from patent US8987256B2, “Oxo-heterocyclic substituted carboxylic acid derivatives and the use thereof” (Bayer Intellectual Property GmbH, priority 2008, dated 2015).

The subject of experiment [1] is saphenous artery rings. The experiment can be described thus: Vasorelaxant effect in vitro (phenylephrine-contracted artery rings). Set-up: species or system Rabbits. Conditions: Oryctolagus cuniculus, concentration reducing phenylephrine-induced contraction by 50%. Here is the method: Rabbits are anesthetized and sacrificed by intravenous injection of thiopental sodium (about 50 mg/kg) and exsanguinated. The saphenous artery is removed and divided into rings 3 mm wide. The rings are mounted singly on in each case a pair of triangular hooks open at the end and made of 0.3 mm-thick special wire (Remanium®). Each ring is placed under an initial tension in 5 ml organ baths with Krebs-Henseleit solution which is at 37° C., is gassed with carbogen and has the following composition: NaCl 119 mM; KCl 4.8 mM; CaCl2×2H2O 1 mM; MgSO4×7H2O 1.4 mM; KH2PO4 1.2 mM; NaHCO3 25 mM; glucose 10 mM; bovine serum albumin 0.001%. The force of contraction is detected with Statham UC2 cells, amplified and digitized via A/D converters (DAS-1802 HC, Keithley Instruments, Munich) and recorded in parallel on chart recorders. Contractions are induced by addition of phenylephrine.
After several (generally 4) control cycles, the substance to be investigated is added in each further run in increasing dosage, and the level of the contraction achieved under the influence of the test substance is compared with the level of the contraction reached in the last preceding run. The concentration necessary to reduce the contraction reached in the preceding control by 50% is calculated from this (IC50). The standard application volume is 5 μl. The proportion of DMSO in the bath solution corresponds to 0.1%.

Experiment [2] concerns the target T1, Heme-containing sGC (recombinant soluble guanylate cyclase) (Rattus norvegicus, UniProt P20595).
T1 construct: made in house; host or cells: baculovirus/Sf9 insect cells
T1 sequence (P20595 1-619): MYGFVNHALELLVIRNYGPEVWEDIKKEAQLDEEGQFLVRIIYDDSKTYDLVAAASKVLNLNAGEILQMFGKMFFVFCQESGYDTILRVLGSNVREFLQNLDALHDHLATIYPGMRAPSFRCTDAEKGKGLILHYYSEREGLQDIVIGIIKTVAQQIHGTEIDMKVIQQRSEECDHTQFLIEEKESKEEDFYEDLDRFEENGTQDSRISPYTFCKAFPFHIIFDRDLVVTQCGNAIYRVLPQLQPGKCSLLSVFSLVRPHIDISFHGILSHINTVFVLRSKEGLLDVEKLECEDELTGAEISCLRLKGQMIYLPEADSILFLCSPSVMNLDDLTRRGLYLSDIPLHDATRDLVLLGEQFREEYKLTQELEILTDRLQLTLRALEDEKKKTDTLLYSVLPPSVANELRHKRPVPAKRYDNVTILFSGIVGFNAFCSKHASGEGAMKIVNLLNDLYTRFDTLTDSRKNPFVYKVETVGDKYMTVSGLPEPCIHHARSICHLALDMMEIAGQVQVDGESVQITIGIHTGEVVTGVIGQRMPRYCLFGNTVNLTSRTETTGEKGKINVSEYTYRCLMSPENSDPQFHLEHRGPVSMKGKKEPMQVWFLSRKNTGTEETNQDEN
T1 sequence (P19686 1-690 partner): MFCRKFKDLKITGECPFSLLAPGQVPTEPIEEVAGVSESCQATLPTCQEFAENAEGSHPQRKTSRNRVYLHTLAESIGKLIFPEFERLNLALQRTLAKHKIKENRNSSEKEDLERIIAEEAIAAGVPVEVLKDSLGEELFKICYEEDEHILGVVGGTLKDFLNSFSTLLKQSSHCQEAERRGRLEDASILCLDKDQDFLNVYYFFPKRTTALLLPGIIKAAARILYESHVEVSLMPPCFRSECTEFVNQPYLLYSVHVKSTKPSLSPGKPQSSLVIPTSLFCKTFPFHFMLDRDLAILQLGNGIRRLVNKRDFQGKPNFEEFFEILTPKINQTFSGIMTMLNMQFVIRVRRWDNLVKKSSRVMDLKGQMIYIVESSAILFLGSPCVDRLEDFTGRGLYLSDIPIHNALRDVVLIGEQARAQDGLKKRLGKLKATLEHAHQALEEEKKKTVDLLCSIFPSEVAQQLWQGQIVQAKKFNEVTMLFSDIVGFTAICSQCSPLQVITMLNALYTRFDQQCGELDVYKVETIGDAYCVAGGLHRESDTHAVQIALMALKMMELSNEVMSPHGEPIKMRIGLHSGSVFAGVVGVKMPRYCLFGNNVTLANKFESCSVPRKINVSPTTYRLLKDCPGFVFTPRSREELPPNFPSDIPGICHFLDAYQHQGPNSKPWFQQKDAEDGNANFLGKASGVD
The experiment can be described thus: Stimulation of recombinant soluble guanylate cyclase (sGC) in vitro, heme-containing enzyme. Format: biochemical. The text has this: Hoenicka, E. M. Becker, H. Apeler, T. Sirichoke, H. Schroeder, R. Gerzer and J.-P. Stasch, “Purified soluble guanylyl cyclase expressed in a baculovirus/Sf9 system: Stimulation by YC-1, nitric oxide, and carbon oxide”, J. Mol. Med. 77 (1999), 14-23. The heme-free guanylate cyclase is obtained by adding Tween 20 to the sample buffer (0.5% in the final concentration).
(§1) The activation of sGC by a test substance is reported as n-fold stimulation of the basal activity.

Experiment [3] addresses T2, Heme-free sGC (recombinant soluble guanylate cyclase) (Rattus norvegicus, UniProt P20595).
T2 construct: made in house; host or cells: baculovirus/Sf9 insect cells
T2 sequence (P20595 1-619): T1 sequence (P20595 1-619)
T2 sequence (P19686 1-690 partner): T1 sequence (P19686 1-690 partner)
The experiment can be described thus: Stimulation of recombinant soluble guanylate cyclase (sGC) in vitro, heme-free enzyme. Format: biochemical. The protocol: Investigations on the stimulation of recombinant soluble guanylate cyclase (sGC) by the compounds according to the invention with and without sodium nitroprusside, and with and without the heme-dependent sGC inhibitor 1H-1,2,4-oxadiazolo-(4,3a)-quinoxalin-1-one (ODQ) are carried out by the method described in detail in the following reference: M. Hoenicka, E. M. Becker, H. Apeler, T. Sirichoke, H. Schroeder, R. Gerzer and J.-P. Stasch, “Purified soluble guanylyl cyclase expressed in a baculovirus/Sf9 system: Stimulation by YC-1, nitric oxide, and carbon oxide”, J. Mol. Med. 77 (1999), 14-23. The heme-free guanylate cyclase is obtained by adding Tween 20 to the sample buffer (0.5% in the final concentration).
as §1

Experiment [4] concerns the target T3, recombinant guanylate cyclase reporter cell line (Rattus norvegicus, UniProt P20595).
T3 construct: expressed in transfected cells; host or cells: CHO reporter cell line
T3 sequence (P20595 1-619): T1 sequence (P20595 1-619)
T3 sequence (P19686 1-690 partner): T1 sequence (P19686 1-690 partner)
The experiment can be described thus: sGC-activating activity in the CHO reporter cell in vitro. In kind it is cell-based. The protocol: The cellular action of the compounds according to the invention is determined at a recombinant guanylate cyclase reporter cell line, as described in F. Wunder et al., Anal. Biochem. 339, 104-112 (2005).

For the compound `O=C(O)CCc1cccc(NC(=O)C(c2ccc(CN3N=C(c4ccccc4)OCC3=O)cc2)C2CCCC2)c1` (single isomer, unassigned) [Example 103, 3-{3-[(Cyclopentyl{4-[(5-oxo-2-phenyl-5,6-dihydro-4H-1,3,4-oxadiazin-4-yl)methyl]phenyl}acetyl)amino]phenyl}propanoic acid], the IC50 in experiment [1] came to 120 nM. Moreover, the “Stimulation (n-fold) of heme-containing sGC, basal” value in experiment [2] (0.1 μM Example 103) is reported as 1.2 n-fold; in experiment [2] (1 μM Example 103) it was 1.4 n-fold; in experiment [2] (10 μM Example 103), 6.2 n-fold; in experiment [2] (100 μM Example 103) it was 22.3 n-fold. The “Stimulation (n-fold) of heme-containing sGC, +0.1 μM DEA/NO” value came out at 6.9 n-fold in experiment [2] (0.1 μM Example 103), 7.8 n-fold in experiment [2] (1 μM Example 103), 13.5 n-fold in experiment [2] (10 μM Example 103) and 35.6 n-fold in experiment [2] (100 μM Example 103). The “Stimulation (n-fold) of heme-containing sGC, +10 μM ODQ” value is 5.8 n-fold in experiment [2] (0.1 μM Example 103), 8.5 n-fold in experiment [2] (1 μM Example 103), 36.8 n-fold in experiment [2] (10 μM Example 103) and 91.8 n-fold in experiment [2] (100 μM Example 103). In addition, the “Effect of combination with the NO donor DEA/NO on sGC stimulation” value in experiment [2] (combination with DEA/NO) is reported as “no synergistic effect”. Also, the “Stimulation (n-fold) of heme-free sGC, basal” value in experiment [3] (0.1 μM Example 103) is 1.1 n-fold; in experiment [3] (1 μM Example 103), 2.4 n-fold; in experiment [3] (10 μM Example 103), 13.9 n-fold; in experiment [3] (100 μM Example 103), 56.1 n-fold. Also, in experiment [4], the “MEC (minimum effective concentration), sGC-activating activity in the CHO reporter cell” value is recorded as 10 nM.
